Experimental data: patent US20240245617A1, “LIPID-BASED TOPICAL INJECTION FORMULATIONS” (Beijing Jitai Pharmaceutical Technology Co., Ltd., priority 2022, published 2024)

Legend:
[1] = system: C57BL/6 mice; assay: In vivo bioluminescence after intravenous administration of lipid nanoparticles encapsulating luciferase mRNA; conditions: 0.5 mg/kg mRNA, liver
Experimental: The delivery effect and safety of nanoparticles encapsulating luciferase mRNA (Trilink, L-7202) in mice were evaluated. The test mice were SPF-grade C57BL/6 mice, female, 6-8 weeks old, weighing 18-22 g, and were purchased from SPF (Beijing) Biotechnology Co., Ltd. All animals were acclimatized for more than 7 days prior to the experiment, and had free access to food and water during the experiment. The conditions include alternating light and dark for 12/12 h, the indoor temperature of 20-26° C. and the humidity of 40-70%. The mice were randomly grouped. The lipid nanoparticles encapsulating luciferase mRNA prepared above were injected into mice by intravenous administration at a single dose of 0.5 mg/kg mRNA, and the mice were subjected to in vivo bioluminescence assay using a Small Animal In Vivo Imaging System (IVIS LUMINA III, purchased from PerkinElmer) at 6 h after administration. The assay was performed as follows: D-luciferin solution was prepared in saline at a concentration of 15 mg/mL, and each mouse was given the substrate by intraperitoneal injection. At ten minutes after administration of the substrate, the mice were anesthetized in an anesthesia chamber with isoflurane at a concentration of 2.5%. […] Data acquisition and analysis were performed on the liver.
The in vivo delivery efficiency of lipid nanoparticle carriers was expressed as the mean values of fluorescence intensity and total photon count in different animals within the same subject group, as shown in Table 4. Higher values of fluorescence intensity and total photon count indicate higher in vivo delivery efficiency of this mRNA fragment by lipid nanoparticles. The lipid nanoparticles containing the cationic lipids of the present disclosure have good in vivo delivery efficiency and mainly target the liver.

[2] = Encapsulation efficiency of lipid nanoparticles, Quant-it RiboGreen RNA Assay; type: physicochemical; conditions: LNP ionizable lipid/cholesterol/DSPC/DMG-PEG2000 50/38.5/10/1.5 mol%, N/P 6, luciferase mRNA
Experimental: (§1) The particle size and particle size dispersity index (polydispersity index, PDI) of the prepared lipid nanoparticles were measured using a Zetasizer Pro (purchased from Malvern Instruments Ltd) and a DynaPro NanoStar (purchased from Wyatt) dynamic light scattering instrument. The degree of RNA encapsulation by lipid nanoparticles was characterized by the Encapsulation Efficiency %, which reflects the degree of binding of lipid nanoparticles to RNA fragments. This parameter was measured by the method of Quant-it™ RiboGreen RNA Assay (purchased from Invitrogen). Lipid nanoparticle samples were diluted in TE buffer (10 mM Tris-HCl, 1 mM EDTA, pH=7.5). A portion of the sample solution was removed, to which 0.5% Triton (Triton X-100) was added, and then allowed to stand at […] for 30 minutes. Immediately after the addition of RIBOGREEN® reaction solution, the fluorescence values were read on a Varioskan LUX multifunctional microplate reader (purchased from Thermofisher) at 485 nm for absorption and 528 nm for emission to give the encapsulation efficiency values.
The produced lipid nanoparticles were characterized using the same method as in Assay example 2, and the results are shown in Table 6 (the percentage content of each component is represented by molar percentage).

[3] = Particle size and PDI of lipid nanoparticles by dynamic light scattering; type: physicochemical; conditions: LNP ionizable lipid/cholesterol/DSPC/DMG-PEG2000 50/38.5/10/1.5 mol%, N/P 6, luciferase mRNA
Experimental: as §1
The preparation of lipid nanoparticles includes microfluidic mixing system, but is not limited to this method, which also includes T-type mixer and ethanol injection method, etc.

Structure (SMILES): CCCC/C=C\CCCCOC(=O)C(C)(C)CCCCCC(CCCCCC(C)(C)C(=O)OCCCC/C=C\CCCC)OC(=O)CCCN(C)C [Compound 28]
- Total photon count in vivo at 6 hours after administration (Total Flux) [1]: 3.21E+09
- Encapsulation efficiency (%) [2]: 80.36%
- Particle size (nm) [3]: 138.16 nm
- Particle size dispersity (PDI) [3]: 0.06

Structure (SMILES): CCCCCCCCCSC(=O)C(C)(C)CCCCCC(CCCCCC(C)(C)C(=O)OCC#CC(CCCC)CCCC)OC(=O)CCCN(C)C (stereo not drawn) [Compound 119]
- Total photon count in vivo at 6 hours after administration (Total Flux) [1]: 3.25E+10
- Encapsulation efficiency (%) [2]: 86.92%
- Particle size (nm) [3]: 80.98 nm
- Particle size dispersity (PDI) [3]: 0.05

Structure (SMILES): CCCCCCCCCSC(=O)C(C)(C)CCCCCC(CCCCCC(C)(C)C(=O)OCC#CCC(CCCC)CCCC)OC(=O)CCCN(C)C (stereo not drawn) [Compound 121]
- Total photon count in vivo at 6 hours after administration (Total Flux) [1]: >4.00E+10
- Encapsulation efficiency (%) [2]: 93.62%
- Particle size (nm) [3]: 103.57 nm
- Particle size dispersity (PDI) [3]: 0.06
